Source: US6815419B1, “Antiulcer agent” (Morinaga Milk Industry Co., Ltd., priority 1999, dated 2004)

Experiments:
stress-induced ulcers = assay: Test Method 2: stress-induced ulcers in rats (restraint and water immersion, Takagi and Okabe); assay type: in vivo, Wistar rats; details: test group 3; sum of scores of ten rats; oral 10 mg/kg, 1 mg/ml; 7 hours restraint in water at 23° C.; blank 50
Procedure: (§1) Male Wistar rats weighing 230 to 270 g, 11 weeks old, (purchased from Japan SLC CO., Ltd.) were randomly classified into six groups (each consisting of ten rats).
(§2) As test agents (antiulcer agents including α-lactalbumin of the present invention as an active ingredient), commercially available α-lactalbumin (manufactured by Sigma Co., Ltd.) was dissolved in distilled water to a concentration of 1 mg/ml to be used. As a test agent for a blank test, distilled water was used.
This experiment was carried out in a manner identical to Method 1 described above, except that ulcers were induced according to the method described by Takagi and Okabe (Japanese Journal of Pharmacology, volume 18, pages 9 to 18, 1968). That is, rats fasted for 24 hours were orally administered with each test agent including at a dose of 10 mg/kg of an active ingredient in body weight (test group number 3). The test agent for a blank test was orally administered to rats in an amount of 10 ml/kg body weight (test group number 4). After 30 minutes, each rat was held in a stainless steel restrictive cage, and was left in a water tank at 23° C., standing and submerging to the depth of the bottom of the breast xiphoid process of the rat.
After 7 hours, each rat was pulled up from the water tank, and the degree of ulcers was measured in a manner identical to Method 1 described above.

alcohol-induced ulcers = assay: Test Method 1: alcohol-induced ulcers in rats, stomach examined after 7 hours; assay type: in vivo, Wistar rats; details: test group 1; sum of scores of ten rats; oral 10 mg/kg, 1 mg/ml; 7 hours after HCl/ethanol; blank 50
Procedure: as §1, §2
This experiment was carried out according to the method disclosed by Robert et al. (Gastroenterology, volume 77, pages 433 to 443, 1979) in a manner similar to Example 1. That is, rats fasted for 24 hours were orally administered with each test agent at a dose of 10 mg/kg of an active ingredient in body weight (test group number 1). The test agent for a blank test was orally administered to rats in an amount of 10 ml/kg in body weight (test group number 2). […]
After 7 hours, the rats were killed by ether inhalation, the stomach of each rat was taken out to the body surface, the pyloric part of the stomach was ligated, and then the stomach was removed. […] Then, the curvatura ventriculi major of the stomach fixed by formalin was cut to open, and the degree of ulcers was measured in a manner identical to Example 1.

[1] = test system: ulcers caused by indomethacin; assay: Test Method 3: ulcers caused by a nonsteroidal anti-inflammatory drug (indomethacin) in rats; assay type: in vivo, Wistar rats; details: test group 5; sum of scores of ten rats; oral 10 mg/kg, 1 mg/ml; 7 hours after indomethacin 30 mg/kg oral; blank 50
Procedure: as §1, §2
This experiment was carried out in a manner identical to Method 1 described above, except that ulcers were induced in accordance with the method of Okabe, et al. (Japanese Journal of Pharmacology, volume 29, pages 670 to 673, […]). That is, rats fasted for 24 hours were orally administered with the each test agent at a dose of 10 mg/kg of an active ingredient in body weight (test group number 5). The test agent for a blank test was orally administered to each rat in an amount of 10 ml/kg body weight (test group number 6). After 30 minutes, indomethacin at a dose of 30 mg/kg body weight, which is a representative nonsteroidal anti-inflammatory drug, was orally administered.
After 7 hours, the degree of ulcers was measured in a manner identical to Method 1 described above.

CD (SD) rats = assay: Acute toxicity of single oral administration in rats; assay type: in vivo; details: for Number of deaths/Total number, Female: female rats; for Number of deaths/Total number, Male: male rats
Procedure: Male and Female CD (SD) rats, 6 weeks old, purchased from Japan SLC CO., Ltd.) were respectively and randomly classified into three groups (each consisting of five rats) to be used for this experiment.
Commercially available α-lactalbumin (manufactured by Sigma Co., Ltd.) was dissolved in water for injection (manufactured by Otsuka Pharmaceutical Co., Ltd.) to each of a concentration of 100 mg/ml and 200 mg/ml, which were respectively and orally administered in an amount of 1 ml per 100 g of body weight (at each dose of 1000 mg and 2000 mg per 1 kg of rat body weight) to each rat of each group by single oral instillation by means of a metal probe with a rounded tip, in order to examine the acute toxicity. As a blank test, only water for injection (manufactured by Otsuka Pharmaceutical Co., Ltd.) was administered in the same way to each rat of both groups of males and females.

[2] = test system: hydrochloric acid and ethanol induced lesions on the mucous membrane of the stomach; assay: Hydrochloric acid and ethanol induced ulcer in rats (method of Robert et al.), stomach examined after 1 hour; assay type: in vivo, Wistar rats; details: for Cumulative degree of lesions on mucous membrane: blank 60
Procedure: Male Wistar rats weighing 230 to 270 g, 11 weeks old, (purchased from Japan SLC CO., Ltd.) were randomly classified into five groups (each consisting of ten rats).
The experiment was carried out according to the method disclosed by Robert et al. (Gastroenterology, volume 77, pages 433 to 443, 1979). That is, rats were fasted for 24 hours and were orally administered with each test agent at a dose of 10 mg/kg of an active ingredient in body weight. Test agent 1 for a blank test was orally administered to the rats in an amount of 10 ml/kg body weight. After 30 minutes, hydrochloric acid and ethanol solution [hydrochloric acid and ethanol solution (M=mol/dm^3) prepared by mixing 500 mM of hydrogen chloride (HCl) solution and 75% ethanol solution at a volume ratio of […])] was orally administered to the rats at a dose of 5 ml/kg body weight.
After 1 hour, the rats were killed by ether inhalation, the stomach of each rat was taken out to the body surface, the pyloric part of the stomach was ligated, and then the stomach was removed. Then, 10 ml of 2% formalin solution was injected into the stomach from the cardiac part thereof, and the stomach was subsequently immersed in the formalin solution for 10 minutes for fixation. Then, the curvatura ventriculi major of the stomach fixed by formalin was cut to open, and the degree of ulcers was measured by the following method.
That is, the total area of injured portions on the mucous membrane of each rat was measured, and then the degree of lesions on the mucous membrane of each rat (score) was classified into six grades as shown in Table 1 in accordance with the total area of the injured portion.
This experiment was carried out in a manner identical to Example 1, except that α-lactalbumin included in the test agents as an active ingredient was respectively orally administered at a dose of 0 mg/kg body weight (blank test), 1 mg/kg body weight, 10 mg/kg body weight, or 100 mg/kg body weight.
This experiment was carried out in a manner identical to Example 1, except that α-lactalbumin included as an active ingredient in each test agent was respectively orally administered at a dose of 10 mg/kg body weight. The dose for the blank test was 0 mg/kg body weight.

Substance: α-lactalbumin
- Cumulative degree of lesions on mucous membrane (stress-induced ulcers): 12
- Cumulative degree of lesions on mucous membrane (alcohol-induced ulcers): 6
- Cumulative degree of lesions on mucous membrane [1]: 23
- Number of deaths/Total number, Female (CD (SD) rats; single oral dose 1000 mg/kg): 0/5
- Number of deaths/Total number, Female (CD (SD) rats; single oral dose 2000 mg/kg): 0/5
- Number of deaths/Total number, Male (CD (SD) rats; single oral dose 1000 mg/kg): 0/5
- Number of deaths/Total number, Male (CD (SD) rats; single oral dose 2000 mg/kg): 0/5
- LD50 (CD (SD) rats; rats, single oral administration): no less than 2000 mg/kg body weight
- Concentration of test agent that shows antiulcer effects ([2]; oral dose fixed at 10 mg/kg): no less than 0.5 mg/ml
- Concentration of test agent that shows significant antiulcer effects ([2]; oral dose fixed at 10 mg/kg): no less than 1 mg/ml
- Effective dose for oral administration ([2]; rats, oral, significant antiulcer effects): no less than 10 mg per 1 kg of body weight
- Cumulative degree of lesions on mucous membrane ([2]; sum of scores (0-6, Table 1) of ten rats, oral 10 mg/kg active ingredient, 1 mg/ml, 30 min before HCl/ethanol): 7
- Cumulative degree of lesions on mucous membrane ([2]; sum of scores of ten rats, concentration 0.25 mg/ml, oral dose 10 mg/kg): 30
- Cumulative degree of lesions on mucous membrane ([2]; sum of scores of ten rats, concentration 0.5 mg/ml, oral dose 10 mg/kg): 13
- Cumulative degree of lesions on mucous membrane ([2]; sum of scores of ten rats, concentration 1 mg/ml, oral dose 10 mg/kg): 7
- Cumulative degree of lesions on mucous membrane ([2]; sum of scores of ten rats, concentration 5 mg/ml, oral dose 10 mg/kg): 5
- Cumulative degree of lesions on mucous membrane ([2]; sum of scores of ten rats, concentration 10 mg/ml, oral dose 10 mg/kg): 5
- Cumulative degree of lesions on mucous membrane ([2]; sum of scores of ten rats, oral dose 1 mg/kg, 1 mg/ml): 47
- Cumulative degree of lesions on mucous membrane ([2]; sum of scores of ten rats, oral dose 10 mg/kg, 1 mg/ml): 7
- Cumulative degree of lesions on mucous membrane ([2]; sum of scores of ten rats, oral dose 100 mg/kg, 1 mg/ml): 3
